The record followed here is ChEMBL document CHEMBL5113532, “Design and Characterization of a Natural Arf-GEFs Inhibitor Prodrug CHNQD-01255 with Potent Anti-Hepatocellular Carcinoma Efficacy In Vivo” (J Med Chem, 2022).

pIC50: −log10 of the molar value. ≈ marks a conversion by molar mass, not a printed value. Some results are limits rather than exact numbers.

One data set concerns HepG2. As to the kind of experiment: Antiproliferative activity against human HepG2 cells by MTT assay. In kind it is functional, cell-based.
The subject of the next data set is Bel-7402. As to the kind of experiment: Antiproliferative activity against human Bel-7402 cells by MTT assay. The class given is functional, cell-based.
Data set [1] can be described thus: Solubility of the compound in saline/solutol HS-15 (90/10% V/V) at pH 7.4. The class given is physicochemical.
A short description of data set [2]: Solubility of the compound in saline/solutol HS-15 (95/5% V/V) at pH 7.4. The class given is physicochemical.
Data set [3] can be described thus: Solubility of the compound in 0.9% NaCl at pH 7.4. In kind it is physicochemical.
Data set [4] in a line: Solubility of the compound in saline/DMSO (95/5% V/V) at pH 7.4. In kind it is physicochemical.
Data set [5] in a line: Solubility of the compound in PBS/DMSO (95/5% V/V) at pH 7.2 to 7.4. In kind it is physicochemical.
A short description of data set [6]: Solubility of the compound in saline/PEG400 (95/5% V/V) at pH 7.4. In kind it is physicochemical.
A short description of data set [7]: Solubility of the compound in saline/PEG400 (80/20% V/V) at pH 7.4. In kind it is physicochemical.
Data set [8] in a line: Solubility of the compound in saline/DMSO/solutol HS-15 (85/5/10% V/V/V) at pH 7.4. In kind it is physicochemical.
Data set [9] in a line: Half life in ICR mouse at 45 mg/kg, po measured after 0.083 to 12 hrs by UPLC-MS/MS analysis. In kind it is ADME, organism-based. Particulars: in vivo, time 0.083-12 hrs.
A short description of data set [10]: Cmax in ICR mouse at 45 mg/kg, po measured after 0.083 to 12 hrs by UPLC-MS/MS analysis. Further details: dose 45 mg/kg, time upper 12 hrs, time lower 0.083 hrs, route po. Conditions: in vivo. In kind it is ADME, organism-based.
Data set [11] is described as follows: AUC (0 to t) in ICR mouse at 45 mg/kg, po measured after 0.083 to 12 hrs by UPLC-MS/MS analysis. The class given is ADME, organism-based. Also on record: dose 45 mg/kg, time upper 12 hrs, time lower 0.083 hrs, route po. Conditions: in vivo.
Data set [12] is described as follows: MRT (0 to t) in ICR mouse at 45 mg/kg, po measured after 0.083 to 12 hrs by UPLC-MS/MS analysis. In kind it is ADME, organism-based. Conditions: in vivo, time 0.083-12 hrs.
Data set [13] in a line: Apparent volume of distribution in ICR mouse at 45 mg/kg, po measured after 0.083 to 12 hrs by UPLC-MS/MS analysis. The class given is ADME, organism-based. Particulars: in vivo, time 0.083-12 hrs.
Data set [14] can be described thus: Clearance in ICR mouse at 45 mg/kg, po measured after 0.083 to 12 hrs by UPLC-MS/MS analysis. Conditions: in vivo, time 0.083-12 hrs. The class given is ADME, organism-based.
The nature of data set [15]: Oral bioavailability in ICR mouse at 45 mg/kg measured after 0.083 to 12 hrs by UPLC-MS/MS analysis. The class given is ADME, organism-based. Particulars: in vivo, time 0.083-12 hrs.
Data set [16] in a line: Half life in ICR mouse at 10 mg/kg, iv measured after 0.083 to 12 hrs by UPLC-MS/MS analysis. In kind it is ADME, organism-based. Conditions: in vivo, time 0.083-12 hrs.
The nature of data set [17]: Cmax in ICR mouse at 10 mg/kg, iv measured after 0.083 to 12 hrs by UPLC-MS/MS analysis. The class given is ADME, organism-based. Also on record: time 0.083-12 hrs, dose 10 mg/kg, route iv. Particulars: in vivo.
Data set [18] is described as follows: AUC(0 to t) in ICR mouse at 10 mg/kg, iv measured after 0.083 to 12 hrs by UPLC-MS/MS analysis. Also on record: time upper 12 hrs, dose 10 mg/kg, time lower 0.083 hrs, route iv. The class given is ADME, organism-based. Conditions: in vivo.
Data set [19] can be described thus: MRT (0 to t) in ICR mouse at 10 mg/kg, iv measured after 0.083 to 12 hrs by UPLC-MS/MS analysis. Conditions: in vivo, time 0.083-12 hrs. The class given is ADME, organism-based.
Data set [20] is described as follows: Apparent volume of distribution in ICR mouse at 10 mg/kg, iv measured after 0.083 to 12 hrs by UPLC-MS/MS analysis. In kind it is ADME, organism-based. Particulars: in vivo, time 0.083-12 hrs, read-out: Vz.
Data set [21] in a line: Clearance in ICR mouse at 10 mg/kg, iv measured after 0.083 to 12 hrs by UPLC-MS/MS analysis. Conditions: in vivo, time 0.083-12 hrs. The class given is ADME, organism-based.
The nature of data set [22]: Acute toxicity in po dosed ICR mouse assessed as maximum tolerated dose. The class given is organism-based. Particulars: in vivo.
Data set [23] is described as follows: Acute toxicity in ip dosed ICR mouse assessed as maximum tolerated dose. The class given is organism-based. Particulars: in vivo.

In turn, `C[C@H]1CCC/C=C/[C@@H]2C[C@H](OC(=O)Nc3ccccc3)C[C@H]2[C@H](O)/C=C/C(=O)O1` gave a pIC50 with HepG2 below 6.00.
Same read-out and setting: under `C[C@H]1CCC/C=C/[C@@H]2C[C@H](OC(=O)OCc3cnc4ccccc4c3)C[C@H]2[C@H](O)/C=C/C(=O)O1` stands below 6.00; under `C[C@H]1CCC/C=C/[C@@H]2C[C@H](OC(=O)c3ccccn3)C[C@H]2[C@H](O)/C=C/C(=O)O1`, 6.54.
On the same count and under the same terms, under `C[C@H]1CCC/C=C/[C@@H]2C[C@H](O)C[C@H]2[C@H](OC(=O)c2cncc(F)c2)/C=C/C(=O)O1` stands 6.03; under `C[C@H]1CCC/C=C/[C@@H]2C[C@H](OC(=O)NCc3cccnc3)C[C@H]2[C@H](O)/C=C/C(=O)O1`, below 6.00.
As for `Cc1cncc(C(=O)O[C@@H]2/C=C/C(=O)O[C@@H](C)CCC/C=C/[C@@H]3C[C@H](O)C[C@H]32)c1`, the pIC50 in the data set with HepG2 was below 6.00.
On to `C[C@H]1CCC/C=C/[C@@H]2C[C@H](OC(=O)OCc3ccccn3)C[C@H]2[C@H](O)/C=C/C(=O)O1`, for which, in the data set on HepG2, the pIC50 was below 6.00.
On the same count and under the same terms, under `C[C@H]1CCC/C=C/[C@@H]2C[C@H](OC(=O)NCCO)C[C@H]2[C@H](O)/C=C/C(=O)O1` stands below 6.00.
Turning to `C[C@H]1CCC/C=C/[C@@H]2C[C@H](OC(=O)c3ccccn3)C[C@H]2[C@H](OC(=O)c2ccccn2)/C=C/C(=O)O1`, the pIC50 with HepG2 was 6.47.
For the compound `C[C@H]1CCC/C=C/[C@@H]2C[C@H](OC(=O)OCCc3cccnc3)C[C@H]2[C@H](O)/C=C/C(=O)O1`, the pIC50 in the data set on HepG2 is 6.07; in the data set with Bel-7402, below 6.00.
The compound `COc1ccc(COC(=O)O[C@@H]2C[C@H]3[C@H](O)/C=C/C(=O)O[C@@H](C)CCC/C=C/[C@@H]3C2)cn1` showed a pIC50 in the data set on HepG2 below 6.00.
For the compound `C[C@H]1CCC/C=C/[C@@H]2C[C@H](OC(=O)c3cccnc3)C[C@H]2[C@H](O)/C=C/C(=O)O1`, the solubility in data set [1], in data set [2], in data set [3], in data set [4], in data set [5] and in data set [6] was below 1000 µg/mL each time. In addition, the values for the solubility in data set [7] and in data set [8] were below 1000 µg/mL and 3000 µg/mL (≈ 7.78 mM), respectively. Besides, the pIC50 is 6.02 in the data set with HepG2 and 6.41 with Bel-7402.
With `C[C@H]1CCC/C=C/[C@@H]2C[C@H](O)C[C@H]2[C@H](OC(=O)OCc2cccnc2)/C=C/C(=O)O1`, the pIC50 in the data set with HepG2 is below 6.00; with Bel-7402, 6.57.
For `C[C@H]1CCC/C=C/[C@@H]2C[C@H](O)C[C@H]2[C@H](OC(=O)c2cccnc2)/C=C/C(=O)O1` the same measures were below 6.00 and 6.57.
Regarding `C[C@H]1CCC/C=C/[C@@H]2C[C@H](OC(=O)c3cccnc3)C[C@H]2[C@H](OC(=O)c2cccnc2)/C=C/C(=O)O1`, the pIC50 in the data set on HepG2 and in the data set with Bel-7402 was below 6.00 throughout.
With `C[C@H]1CCC/C=C/[C@@H]2C[C@H](OC(=O)OCCS)C[C@H]2[C@H](O)/C=C/C(=O)O1`, the pIC50 with HepG2 was below 6.00.
`COc1cccc2c1C(=O)c1c(O)c3c(c(O)c1C2=O)C[C@@](O)(C(=O)CO)C[C@@H]3O[C@H]1C[C@H](N)[C@H](O)[C@H](C)O1` [DOXORUBICIN]: the figures for the negative-log IC50 (pIC50) with HepG2 and in the data set with Bel-7402 were 6.41 and below 6.00, respectively.
On to `C[C@H]1CCC/C=C/[C@@H]2C[C@H](OC(=O)OCc3cncc(F)c3)C[C@H]2[C@H](O)/C=C/C(=O)O1`, for which the pIC50 in the data set on HepG2 was below 6.00.
Take `C[C@H]1CCC/C=C/[C@@H]2C[C@H](OC(=O)c3ccncc3)C[C@H]2[C@H](O)/C=C/C(=O)O1`: in the data set on HepG2, the pIC50 was 6.34.
Take `C[C@H]1CCC/C=C/[C@@H]2C[C@H](OC(=O)NCc3ccncc3)C[C@H]2[C@H](O)/C=C/C(=O)O1`: the pIC50 in the data set on HepG2 is below 6.00.
In the data set with HepG2, `COC(=O)O[C@@H]1C[C@H]2[C@H](O)/C=C/C(=O)O[C@@H](C)CCC/C=C/[C@@H]2C1` showed a pIC50 below 6.00.
For `C[C@H]1CCC/C=C/[C@@H]2C[C@H](O)C[C@H]2[C@H](O)/C=C/C(=O)O1` [BREFELDIN A], the solubility in [1], in [2], in data set [3], in data set [4], in data set [5] and in data set [6] was below 1000 µg/mL each time. The solubility in [7] was below 1000 µg/mL; in [8], 1000 µg/mL (≈ 3.57 mM). Also, the values for the pIC50 with HepG2 and in the data set with Bel-7402 were 7.10 and 7.15, respectively. The half-life in data set [9] was 2.12 h; in [16], 9.05 h. Also, the Cmax came out at 7140 ng/mL in [10] and 13200 ng/mL in data set [17]. For the same compound, the AUC(0-t) in data set [11] came to 4130 ng·h/mL; in data set [18], 4840 ng·h/mL. Also, the MRT last in [12] was 1.4 h; in data set [19], 0.84 h. The Vz in data set [13] is 31.87132 L/kg. This compound gave a CL/F in data set [14] of 173 mL/min/kg. In addition, in data set [15], the bioavailability came out at 19%. The Vd in data set [20] stood at 20.6 L/kg. In data set [21], the clearance amounted to 26.3 mL/min/kg. In addition, the MTD is below 506 mg/kg in data set [22] and below 50 mg/kg in [23].
As for `C[C@H]1CCC/C=C/[C@@H]2C[C@H](OC(=O)OCc3cccnc3)C[C@H]2[C@H](OC(=O)OCc2cccnc2)/C=C/C(=O)O1`, the values for the pIC50 with HepG2 and in the data set on Bel-7402 were below 6.00 and 6.37, respectively.
Turning to `C[C@H]1CCC/C=C/[C@@H]2C[C@H](OC(=O)OCc3ccncc3)C[C@H]2[C@H](O)/C=C/C(=O)O1`, the pIC50 with HepG2 and with Bel-7402 was below 6.00 in each case.
In the data set with HepG2, `C[C@H]1CCC/C=C/[C@@H]2C[C@H](OC(=O)OCCSSCCO)C[C@H]2[C@H](O)/C=C/C(=O)O1` had a pIC50 below 6.00.
On the same count and under the same terms, the figure for `C[C@H]1CCC/C=C/[C@@H]2C[C@H](OC(=O)c3cncc(F)c3)C[C@H]2[C@H](O)/C=C/C(=O)O1` is 6.17.
With `C[C@H]1CCC/C=C/[C@@H]2C[C@H](OC(=O)CN(C)C)C[C@H]2[C@H](O)/C=C/C(=O)O1`, the pIC50 in the data set on HepG2 and in the data set on Bel-7402 was below 6.00 throughout.
In turn, `C[C@H]1CCC/C=C/[C@@H]2C[C@H](O)C[C@H]2[C@H](OC(=O)c2ccccn2)/C=C/C(=O)O1` gave a pIC50 with HepG2 of 6.02.
On the same count and under the same terms, the figure for `Cc1cncc(C(=O)O[C@@H]2C[C@H]3[C@H](O)/C=C/C(=O)O[C@@H](C)CCC/C=C/[C@@H]3C2)c1` is below 6.00.
Still for that read-out and setting: the figure for `C[C@H]1CCC/C=C/[C@@H]2C[C@H](O)C[C@H]2[C@H](OC(=O)c2ccncc2)/C=C/C(=O)O1` is 6.19; for `C[C@H]1CCC/C=C/[C@@H]2C[C@H](OC(=O)NCc3ccccc3)C[C@H]2[C@H](O)/C=C/C(=O)O1` it is below 6.00.
The same measure, in the same setting: under `C[C@H]1CCC/C=C/[C@@H]2C[C@H](OC(=O)c3ccncc3)C[C@H]2[C@H](OC(=O)c2ccncc2)/C=C/C(=O)O1` stands below 6.00.
In turn, `C[C@H]1CCC/C=C/[C@@H]2C[C@H](OC(=O)c3cncc(F)c3)C[C@H]2[C@H](OC(=O)c2cncc(F)c2)/C=C/C(=O)O1` showed a pIC50 in the data set with HepG2 below 6.00.
